The source of these data is PMC6268179, “Synthesis, Docking Studies and Biological Evaluation of Benzo[b]thiophen-2-yl-3-(4-arylpiperazin-1-yl)-propan-1-one Derivatives on 5-HT1A Serotonin Receptors” (Molecules, 2012).

Test [1] concerns the target T1, 5-HT1A receptor (Rattus norvegicus, UniProt P19327).
T1 construct: gene Htr1a; rat cerebral cortex membranes
T1 sequence (P19327 1-422): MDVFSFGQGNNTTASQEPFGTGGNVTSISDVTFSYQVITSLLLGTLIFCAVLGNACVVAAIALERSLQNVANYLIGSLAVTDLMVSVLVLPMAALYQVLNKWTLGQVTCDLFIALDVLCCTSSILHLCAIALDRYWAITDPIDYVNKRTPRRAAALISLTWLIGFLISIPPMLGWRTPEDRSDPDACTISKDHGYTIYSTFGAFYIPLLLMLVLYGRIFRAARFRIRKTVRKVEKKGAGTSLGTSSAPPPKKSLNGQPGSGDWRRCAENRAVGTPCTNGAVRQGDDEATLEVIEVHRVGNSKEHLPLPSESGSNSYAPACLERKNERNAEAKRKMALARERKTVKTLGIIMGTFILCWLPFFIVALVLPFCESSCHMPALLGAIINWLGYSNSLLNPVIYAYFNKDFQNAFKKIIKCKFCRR
The test can be described thus: radioligand displacement of [3H]-8-OH-DPAT, single dose […].

For test [2], the target named is T1, 5-HT1A receptor. Put plainly: radioligand displacement of [3H]-8-OH-DPAT, dose-response. It counts as binding.

As to `COc1ccccc1N1CCN(CCC(=O)c2cc3ccccc3s2)CC1` [7d, 3-[4-(2-Methoxyphenyl)piperazin-1-yl]-1-(benzo[b]thiophen-2-yl)-1-propanone], on 5-HT1A receptor [1], the inhibition (usually the change of the read-out against control, counted positive when it falls) at 1 µM amounted to 52 ± 7%. `O=C(CCN1CCN(c2ccccn2)CC1)c1cc2ccccc2s1` [7e, 1-(benzo[b]thiophen-2-yl)-3-(4-(pyridin-2-yl)piperazin-1-yl)propan-1-one]: the inhibition constant Ki (as a rule, the equilibrium dissociation constant of an inhibitor or competing ligand from its target) at 5-HT1A receptor [2] came out at 2.3 µM.
